Patent US11717502B2, “Blood flow improver” (WAKUNAGA PHARMACEUTICAL CO., LTD., priority 2017, dated 2023)

What was measured:
[1] = tested on: water immersion stressed rats; assay: Action of S1PC against decrease in tail skin blood flow in water immersion stressed rats (Test Example 1); type: in vivo, male Wistar rats
Description: Action of S1PC Against Decrease in Tail Skin Blood Flow in Water Immersion Stressed Rate
Eight-week-old male Wistar rats purchased from Japan SLC, Inc. (Hamamatsu City) were grouped by nines, and preliminarily bred for two weeks. During preliminary breeding, handling was performed on the rats, and the rats were bred in a constant environment at a temperature of 23±1° C., a humidity of 50±10%, and a light/dark cycle of 12 hours (light period: 7 to 19 o'clock), and freely fed with artificial diet (CE-2, from CLEA Japan, inc.) and sterilized tap water.
The administration was performed by forced oral administration using a disposable feeding needle, and the fluid volume to be administered was 10 mL per kilogram of body weight of rat. As a sample to be administered, approximately 15 mg of S1PC (a cis/trans mixture) manufactured in Production Example 2 was precisely weighed, and dissolved in 15 mL of purified water. This solution was used as a stock solution. The solution was properly diluted to give 6.5 mg/kg (body weight of rat) of dosage and the diluted solution was orally administered to each rat a single time. To each rat of a control group, a solvent (purified water) was orally administered in the same manner as described above.
(§1) The rats were allowed to stand still in a room conditioned at a temperature of 20±0.5° C. for 30 minutes or longer, and attached with a probe for blood flow measurement using a binding tape at a position 5 cm away from the base of tail under isoflurane anesthesia. The blood flow was measured for 5 minutes using a laser tissue blood flowmeter (FLO-C1, from Omegawave Inc.). Average blood flow for 3 minutes during which the stable blood flow was shown was determined as the tail skin blood flow of the individual. The blood flow before water immersion was measured, and then S1PC or purified water was orally administered to the rats. Two hours after the administration, the rats were immersed up to the xiphoid and below in water at 15° C. for 10 minutes, using a stainless-steel restraint cage. The tail skin blood flow after the water immersion stress was measured one hour after the end of water immersion stress.
Measured values were given as average±standard error.
The t-test was used for examination.

[2] = tested on: water immersion stressed rats; assay: Actions against depressed tail subcutaneous blood flow in water immersion stressed rats, compared between S1PC and SAC (Test Example 2); type: in vivo, male Wistar rats; conditions: for Effect of improving the tail skin blood flow with respect to the control group: 6.5 mg/kg single oral administration two hours before water immersion stress, one hour after end of stress, Bonferroni correction
Description: Actions against Depressed Tail Subcutaneous Blood Flow in Water Immersion Stressed Rats, Compared between S1PC and SAC
Seven-week-old male Wistar rats purchased from Japan SLC, Inc. (Hamamatsu City) were grouped by twelves, and preliminarily bred for two weeks. During preliminary breeding, handling was performed on the rats, and the rats were bred in a constant environment at a temperature of 23±1° C., a humidity of 50±10%, and a light/dark cycle of 12 hours (light period: 7 to 19 o'clock), and freely fed with artificial diet (CE-2, from CLEA Japan, inc.) and sterilized tap water.
The administration was performed by forced oral administration using a disposable feeding needle, and the fluid volume to be administered was 10 mL per kilogram of body weight of rat. As a sample to be administered, approximately 15 mg each of S1PC (a cis/trans mixture) manufactured in Production Example 2 and SAC were precisely weighed, and dissolved in 15 mL of purified water. These solutions were used as a stock solution. The solutions were properly diluted to give 6.5 mg/kg (body weight of rat) of dosage and the diluted solution was orally administered to each rat a single time. […]
as §1, with “individuals.” for “individual.”, “S1PC, SAC” for “S1PC”, “Two hours after the administration, the rats were immersed up to the xiphoid and below in water at 15° C. for 10 minutes, using a stainless-steel restraint cage.” left out
Measured values were given […] average±standard error. […]

| SMILES | Effect of improving the tail skin blood flow with respect to the control group ([1]; 6.5 mg/kg single oral administration two hours before water immersion stress, t-test) | Degree of decrease in tail skin blood flow due to water immersion stress ([1]; 6.5 mg/kg single oral administration two hours before water immersion stress, versus control group) | Tail skin blood flow, one hour after end of water immersion stress ([1]; 6.5 mg/kg single oral dose two hours before water immersion (15° C., 10 minutes), average ± standard error) [mL/min/100 g] | Tail skin blood flow, before water immersion stress ([1]; baseline before oral administration, average ± standard error, laser tissue blood flowmeter) [mL/min/100 g] | Effect of improving the tail skin blood flow with respect to the control group [2] | Tail skin blood flow, S1PC group compared with SAC group ([2]; 6.5 mg/kg single oral dose each, one hour after end of water immersion stress, p<0.01) |
| --- | --- | --- | --- | --- | --- | --- |
| CC=CSC[C@H](N)C(=O)O [S1PC, S-1-propenylcysteine] | significant effect of improving the tail skin blood flow | smaller as compared with the control group | 2.21 ± 0.15 | 2.76 ± 0.15 | showed a significant effect of improving the tail skin blood flow | significantly higher value of tail skin blood flow, as compared with the SAC group |
| C=CCSC[C@H](N)C(=O)O [SAC, S-allylcysteine, reference compound] | – | – | – | – | did not show a significant effect of improving the tail skin blood flow | – |
